Legend:
Assay in all cases: Gαq-mediated intracellular calcium mobilization
human 5-HT2B receptor = human 5-HT2B receptor (Homo sapiens, UniProt P41595); conditions: calcium flux, HEK-293
human 5-HT2A receptor = human 5-HT2A receptor (Homo sapiens, UniProt P28223); conditions: calcium flux, HEK-293
[1] = target: T1, human 5-HT2C (INI) receptor (Homo sapiens, UniProt P28335); conditions: for Emax: HEK293, read-out: 5-HT2C Emax, percentage of maximal activation by 5-HT, or activation at 10 μM for NA; for agonism at the 5-HT2C receptor (in words): calcium flux, HEK-293
T1 sequence (P28335 33-458): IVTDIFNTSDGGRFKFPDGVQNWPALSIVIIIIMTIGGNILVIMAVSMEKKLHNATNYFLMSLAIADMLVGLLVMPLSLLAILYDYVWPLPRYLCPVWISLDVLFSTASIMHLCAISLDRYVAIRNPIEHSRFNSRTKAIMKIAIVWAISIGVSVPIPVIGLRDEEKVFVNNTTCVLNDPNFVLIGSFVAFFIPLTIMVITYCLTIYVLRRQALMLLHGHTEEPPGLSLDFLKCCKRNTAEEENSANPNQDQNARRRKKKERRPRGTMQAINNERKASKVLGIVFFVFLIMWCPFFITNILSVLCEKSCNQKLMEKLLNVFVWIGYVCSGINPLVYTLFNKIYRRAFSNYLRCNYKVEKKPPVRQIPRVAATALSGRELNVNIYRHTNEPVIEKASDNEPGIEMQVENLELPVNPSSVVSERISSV

Sequence of human 5-HT2B receptor (P41595 whole entry): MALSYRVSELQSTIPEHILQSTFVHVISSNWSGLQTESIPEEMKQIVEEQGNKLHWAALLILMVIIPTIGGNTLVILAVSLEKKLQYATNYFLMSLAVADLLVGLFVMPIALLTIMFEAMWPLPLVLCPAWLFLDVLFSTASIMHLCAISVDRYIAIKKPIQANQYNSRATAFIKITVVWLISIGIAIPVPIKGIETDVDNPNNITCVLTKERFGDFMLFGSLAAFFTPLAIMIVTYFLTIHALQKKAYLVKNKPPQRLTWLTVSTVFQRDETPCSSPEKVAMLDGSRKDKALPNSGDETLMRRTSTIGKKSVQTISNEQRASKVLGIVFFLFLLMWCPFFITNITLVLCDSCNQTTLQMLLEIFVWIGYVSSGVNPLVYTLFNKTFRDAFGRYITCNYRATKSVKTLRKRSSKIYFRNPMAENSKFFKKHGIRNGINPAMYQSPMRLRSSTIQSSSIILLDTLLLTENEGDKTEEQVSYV
Sequence of human 5-HT2A receptor (P28223 whole entry): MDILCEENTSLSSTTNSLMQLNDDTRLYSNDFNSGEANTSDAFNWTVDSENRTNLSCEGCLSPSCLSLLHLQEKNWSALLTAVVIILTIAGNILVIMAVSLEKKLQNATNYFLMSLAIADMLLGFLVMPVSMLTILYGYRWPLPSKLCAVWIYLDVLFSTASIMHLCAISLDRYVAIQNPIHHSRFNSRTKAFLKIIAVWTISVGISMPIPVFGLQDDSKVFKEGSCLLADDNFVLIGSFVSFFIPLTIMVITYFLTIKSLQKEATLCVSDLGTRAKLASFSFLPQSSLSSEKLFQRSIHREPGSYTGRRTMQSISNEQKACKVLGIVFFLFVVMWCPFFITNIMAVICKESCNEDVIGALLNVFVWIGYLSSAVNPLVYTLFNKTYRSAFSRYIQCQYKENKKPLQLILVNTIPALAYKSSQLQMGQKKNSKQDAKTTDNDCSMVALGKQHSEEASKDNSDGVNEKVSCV

Row | SMILES | agonism at the 5-HT2B receptor (in words) (human 5-HT2B receptor) | agonism at the 5-HT2A receptor (in words) (human 5-HT2A receptor) | agonism at the 5-HT2C receptor (in words) [1] | further results
1 | Cl.NC[C@H]1C[C@@H]1c1ccccc1OCC1CC1 (racemic) [Compound 11e, trans-[2-(2-cyclopropylmethoxyphenyl)cyclopropyl]methylamine hydrochloride] | inactive |  |  | 
2 | Cl.NC[C@H]1C[C@@H]1c1ccccc1OCC1CC1 (single isomer, unassigned) [(+)-11e, (+)-trans-[2-(2-cyclopropylmethoxyphenyl)cyclopropyl]methylamine hydrochloride] | activate neither | activate neither |  | agonism at the 5-HT2B receptor (in words) (human 5-HT2B receptor; listed as (+)-trans-[2-(2-cyclopropylmethoxyphenyl)cyclopropyl]methylamine hydrochloride): no detectable agonism
3 | COc1ccc(-c2ccccc2)cc1[C@H]1C[C@@H]1CN [Compound 9a] |  |  |  | EC50 [1]: 3.47 µM; Emax [1]: 67%
4 | COc1ccc(-c2ccccc2C)cc1[C@H]1C[C@@H]1CN [Compound 9b] |  |  |  | EC50 [1]: 3.8 µM; Emax [1]: 64%
5 | CCCCc1ccc(-c2ccc(OC)c([C@H]3C[C@@H]3CN)c2)cc1.Cl [Compound 9h] | failure | failure | failure | 
6 | Cc1ccc(OCC(C)C)c([C@H]2C[C@@H]2CN)c1.Cl [Compound 10a] |  |  | much less potent | 
7 | CCCCOc1ccc(C)cc1[C@H]1C[C@@H]1CN.Cl [Compound 10b] |  |  | much less potent | 
8 | CC(C)COc1ccccc1[C@H]1C[C@@H]1CN.Cl [Compound 11c] | inactive |  |  | 
9 | CCCCCOc1ccccc1[C@H]1C[C@@H]1CN.Cl [Compound 11d] | abolished agonist activity | abolished agonist activity | abolished agonist activity | 
10 | Cl.NC[C@H]1C[C@@H]1c1ccccc1OCC1CCCCC1 [Compound 11g] | abolished agonist activity | abolished agonist activity | abolished agonist activity | 
